According to patent US10765764B2, “Probes for imaging huntingtin protein” (CHDI Foundation, Inc., priority 2015, dated 2020):

biological target: T1, Q46 protein aggregates (Homo sapiens, UniProt P42858); test: Q46 Radioligand Binding Assay (RBA), displacement of [^3H3]MK-3328; details: 10 nM [^3H3]MK-3328, 5 μM Q46 protein aggregates
T1 construct: fused on or other part: An N-terminal GST tag, cleaved off with thrombin before the assay to trigger aggregation
Protocol: For radioligand binding assays (RBA) GST-Q46 protein was generated based on a previous publication (Scherzinger et al. Cell, Vol. 90, 549-558, Aug. 8, 1997). For experiments 33 μM GST-Q46 was incubated with 150 μg/mL thrombin in assay buffer (150 mM NaCl, 50 mM Tris pH 8.0) and 2 mM CaCl2 for 16 hours at 37° C. Aggregated Q46 was pelleted by centrifugation for 5 minutes at 13,000 rpm in a bench top centrifuge and re-dissolved in the same volume of assay buffer. Test compounds were prepared by titration in DMSO at 11 concentrations from 33 μM to 1 nM. For the RBA, Q46 protein aggregates and test compounds were pre-incubated in assay buffer for 20 minutes at room temperature, in 140 μL/well in a 96-well plate (pp, round bottom). Then, ligand was added in 10 μL/well and incubated for 60 minutes at 37° C. Final assay concentrations were 1 μM to 30 pM test compound, 5 μM Q46 protein (equivalent monomer concentration) and 10 nM ligand [^3H3]MK-3328 (Harrision et al., ACS Med. Chem. Lett., 2 (2011), pp 498-502). Samples were transferred onto GF/B filter plates and washed 2× with 200 μL PBS using a Filtermate Harvester. After drying filter plates for 1 hour at 37° C., the back of the plates was sealed with foil and 30 μl/well scintillation fluid (Packard MicroScint 40) was added, incubated for incubated for 15 minutes in the dark and counted in a TopCount reader. For analysis, replicate data from independent assay plates were normalized towards 0% and 100% inhibition using control wells of vehicle (0% inhibition) and 3 μM unlabelled MK-3328 (100% inhibition). IC50 values were determined with a sigmoidal inhibition model with four variables (top, bottom, slope, IC50) in a global fit using the normalized replicate data.

T1 sequence (P42858 with tags, fused parts or gaps with the stated changes, form open): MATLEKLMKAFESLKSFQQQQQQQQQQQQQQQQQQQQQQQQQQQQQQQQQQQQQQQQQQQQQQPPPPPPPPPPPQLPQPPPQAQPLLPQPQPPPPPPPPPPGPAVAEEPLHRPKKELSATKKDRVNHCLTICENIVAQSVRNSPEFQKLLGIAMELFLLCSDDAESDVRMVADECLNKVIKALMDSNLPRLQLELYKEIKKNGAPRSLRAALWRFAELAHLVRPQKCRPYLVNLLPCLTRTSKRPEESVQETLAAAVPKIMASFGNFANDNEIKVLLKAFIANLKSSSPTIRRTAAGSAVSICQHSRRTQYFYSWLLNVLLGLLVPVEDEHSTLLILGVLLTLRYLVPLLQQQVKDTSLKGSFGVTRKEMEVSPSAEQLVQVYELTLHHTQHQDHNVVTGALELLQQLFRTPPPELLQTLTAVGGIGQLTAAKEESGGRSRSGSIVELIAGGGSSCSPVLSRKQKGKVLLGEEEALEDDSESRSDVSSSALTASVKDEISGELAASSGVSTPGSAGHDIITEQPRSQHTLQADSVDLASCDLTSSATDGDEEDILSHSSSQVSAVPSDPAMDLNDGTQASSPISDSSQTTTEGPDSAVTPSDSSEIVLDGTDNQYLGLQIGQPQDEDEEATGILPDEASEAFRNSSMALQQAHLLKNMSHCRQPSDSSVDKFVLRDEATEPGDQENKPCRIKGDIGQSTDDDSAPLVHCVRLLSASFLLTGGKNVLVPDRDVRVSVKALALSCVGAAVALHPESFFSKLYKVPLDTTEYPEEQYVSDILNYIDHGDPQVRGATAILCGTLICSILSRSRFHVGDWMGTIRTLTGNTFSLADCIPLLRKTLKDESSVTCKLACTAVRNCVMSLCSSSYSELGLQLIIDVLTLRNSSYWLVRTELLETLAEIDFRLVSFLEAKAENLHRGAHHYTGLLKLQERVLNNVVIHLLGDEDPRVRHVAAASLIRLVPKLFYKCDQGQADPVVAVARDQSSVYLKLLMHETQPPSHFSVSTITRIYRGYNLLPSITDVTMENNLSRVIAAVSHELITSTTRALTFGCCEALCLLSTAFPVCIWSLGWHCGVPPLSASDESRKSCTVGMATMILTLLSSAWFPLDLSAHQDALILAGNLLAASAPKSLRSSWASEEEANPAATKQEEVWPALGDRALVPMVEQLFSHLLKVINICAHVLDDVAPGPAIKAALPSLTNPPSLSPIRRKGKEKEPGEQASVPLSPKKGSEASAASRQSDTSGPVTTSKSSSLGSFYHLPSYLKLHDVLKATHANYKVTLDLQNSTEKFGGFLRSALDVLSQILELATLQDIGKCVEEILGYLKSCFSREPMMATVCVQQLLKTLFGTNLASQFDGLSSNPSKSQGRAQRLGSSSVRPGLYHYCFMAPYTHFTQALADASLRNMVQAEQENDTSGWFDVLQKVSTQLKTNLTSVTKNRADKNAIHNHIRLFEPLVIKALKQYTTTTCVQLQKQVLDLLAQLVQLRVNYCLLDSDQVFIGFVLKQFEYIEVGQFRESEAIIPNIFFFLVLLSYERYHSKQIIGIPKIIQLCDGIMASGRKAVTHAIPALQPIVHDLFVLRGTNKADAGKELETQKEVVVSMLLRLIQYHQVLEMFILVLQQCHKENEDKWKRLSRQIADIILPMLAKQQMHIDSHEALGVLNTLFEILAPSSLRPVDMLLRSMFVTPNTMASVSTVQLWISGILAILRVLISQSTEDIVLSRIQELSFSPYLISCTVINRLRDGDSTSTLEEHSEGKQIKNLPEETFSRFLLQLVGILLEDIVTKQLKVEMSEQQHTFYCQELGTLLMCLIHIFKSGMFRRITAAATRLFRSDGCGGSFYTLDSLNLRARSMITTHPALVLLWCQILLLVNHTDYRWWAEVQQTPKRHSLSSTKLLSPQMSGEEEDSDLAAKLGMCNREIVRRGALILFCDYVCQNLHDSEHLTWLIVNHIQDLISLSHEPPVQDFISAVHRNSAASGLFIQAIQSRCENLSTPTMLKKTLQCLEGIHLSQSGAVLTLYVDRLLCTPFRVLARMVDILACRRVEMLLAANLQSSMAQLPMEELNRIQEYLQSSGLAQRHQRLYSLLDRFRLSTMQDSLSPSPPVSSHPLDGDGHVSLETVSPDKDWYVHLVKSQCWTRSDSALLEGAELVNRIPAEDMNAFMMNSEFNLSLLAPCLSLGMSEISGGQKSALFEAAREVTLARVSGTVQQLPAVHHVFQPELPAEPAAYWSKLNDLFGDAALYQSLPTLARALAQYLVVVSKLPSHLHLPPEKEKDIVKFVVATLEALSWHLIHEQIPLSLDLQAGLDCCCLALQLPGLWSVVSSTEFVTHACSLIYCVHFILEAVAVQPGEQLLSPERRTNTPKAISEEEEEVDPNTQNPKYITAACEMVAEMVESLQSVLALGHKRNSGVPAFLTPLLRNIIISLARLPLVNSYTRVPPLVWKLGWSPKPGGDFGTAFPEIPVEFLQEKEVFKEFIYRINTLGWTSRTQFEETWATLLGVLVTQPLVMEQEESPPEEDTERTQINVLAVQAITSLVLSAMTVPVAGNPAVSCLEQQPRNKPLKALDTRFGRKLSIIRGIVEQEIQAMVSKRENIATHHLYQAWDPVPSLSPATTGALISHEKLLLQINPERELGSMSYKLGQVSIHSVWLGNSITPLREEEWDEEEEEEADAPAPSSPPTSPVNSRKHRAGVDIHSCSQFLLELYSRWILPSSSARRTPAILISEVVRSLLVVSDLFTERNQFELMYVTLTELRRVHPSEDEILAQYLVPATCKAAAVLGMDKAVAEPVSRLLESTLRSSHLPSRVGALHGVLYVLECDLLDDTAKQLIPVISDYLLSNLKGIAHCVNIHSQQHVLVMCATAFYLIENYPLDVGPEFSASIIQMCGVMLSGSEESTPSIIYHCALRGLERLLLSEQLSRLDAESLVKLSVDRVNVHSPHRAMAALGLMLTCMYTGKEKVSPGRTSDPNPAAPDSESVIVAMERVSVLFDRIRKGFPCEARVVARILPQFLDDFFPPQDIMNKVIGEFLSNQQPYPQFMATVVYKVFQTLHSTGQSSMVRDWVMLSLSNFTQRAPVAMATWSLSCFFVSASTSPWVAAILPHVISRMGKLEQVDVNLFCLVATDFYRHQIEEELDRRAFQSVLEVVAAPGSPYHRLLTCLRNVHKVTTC

SMILES	IC50 [µM]
COc1ccc2c(c1)sc1nc(C(=O)Nc3ccc(F)nc3)cn12 [N-(6-fluoropyridin-3-yl)-10-methoxy-7-thia-2,5-diazatricyclo[6.4.0.0^2,6]dodeca-1(12),3,5,8,10-pentaene-4-carboxamide]	< 0.1
COc1ccc2c(n1)sc1nc(C(=O)Nc3cccnc3)cn12 [10-methoxy-N-(pyridin-3-yl)-7-thia-2,5,9-triazatricyclo[6.4.0.0^2,6]dodeca-1(12),3,5,8,10-pentaene-4-carboxamide]	< 0.1
COc1ccc(NC(=O)c2ccn3c(n2)nc2ccccc23)cn1 [N-(6-methoxypyridin-3-yl)-1,8,10-triazatricyclo[7.4.0.0^2,7]trideca-2(7),3,5,8,10,12-hexaene-11-carboxamide]	< 0.1
COc1cncc(NC(=O)c2ccn3c(n2)nc2cc(-c4cncc(OC)c4)ccc23)c1 [N,5-bis(5-methoxypyridin-3-yl)-1,8,10-triazatricyclo[7.4.0.0^2,7]trideca-2(7),3,5,8,10,12-hexaene-11-carboxamide]	< 0.1
CNCc1cccc(NC(=O)c2cn3c(n2)sc2cc(OC)ccc23)c1 [10-methoxy-N-{3-[(methylamino)methyl]phenyl}-7-thia-2,5-diazatricyclo[6.4.0.0^2,6]dodeca-1(8),3,5,9,11-pentaene-4-carboxamide]	< 0.1
COc1ccc2c(c1)sc1nc(C(=O)N3Cc4cnn(C)c4C3)cn12 [10-methoxy-4-{1-methyl-1H,4H,5H,6H-pyrrolo[3,4-c]pyrazole-5-carbonyl}-7-thia-2,5-diazatricyclo[6.4.0.0^2,6]dodeca-1(12),3,5,8,10-pentaene]	< 0.1
Cn1cc(NC(=O)c2ccn3c(n2)nc2ccccc23)cnc1=O [N-(1-methyl-2-oxo-1,2-dihydropyrimidin-5-yl)-1,8,10-triazatricyclo[7.4.0.0^2,7]trideca-2(7),3,5,8,10,12-hexaene-11-carboxamide]	< 0.1
COc1ccc2c(c1)nc1sc(C(=O)Nc3cnc(C)nc3)cn12 [10-methoxy-N-(2-methylpyrimidin-5-yl)-5-thia-2,7-diazatricyclo[6.4.0.0^2,6]dodeca-1(8),3,6,9,11-pentaene-4-carboxamide]	< 0.1
O=C(Nc1cccnc1)c1cn2c(n1)sc1cc(OCCF)ccc12 [10-(2-fluoroethoxy)-N-(pyridin-3-yl)-7-thia-2,5-diazatricyclo[6.4.0.0^2,6]dodeca-1(8),3,5,9,11-pentaene-4-carboxamide]	< 0.1
COc1cnc2sc3nc(C(=O)Nc4ccc(=O)n(C)n4)cn3c2c1 [11-methoxy-N-(1-methyl-6-oxo-1,6-dihydropyridazin-3-yl)-7-thia-2,5,9-triazatricyclo[6.4.0.0^2,6]dodeca-1(12),3,5,8,10-pentaene-4-carboxamide]	< 0.1
O=C(Nc1ccc(F)nc1)c1ccn2c(n1)nc1ccccc12 [N-(6-fluoropyridin-3-yl)-1,8,10-triazatricyclo[7.4.0.0^2,7]trideca-2(7),3,5,8,10,12-hexaene-11-carboxamide]	< 0.1
CNC(=O)c1ccc(NC(=O)c2cn3c(n2)sc2cc(OC)ccc23)cn1 [10-methoxy-N-[6-(methylcarbamoyl)pyridin-3-yl]-7-thia-2,5-diazatricyclo[6.4.0.0^2,6]dodeca-1(12),3,5,8,10-pentaene-4-carboxamide]	< 0.1
COc1ccc(NC(=O)c2cn3c(n2)sc2cc(OC)ccc23)nc1 [10-methoxy-N-(5-methoxypyridin-2-yl)-7-thia-2,5-diazatricyclo[6.4.0.0^2,6]dodeca-1(12),3,5,8,10-pentaene-4-carboxamide]	< 0.1
COc1ccc2c(c1)nc1nc(C(=O)Nc3ccc(OC)nc3)ccn12 [5-methoxy-N-(6-methoxypyridin-3-yl)-1,8,10-triazatricyclo[7.4.0.0^2,7]trideca-2(7),3,5,8,10,12-hexaene-11-carboxamide]	< 0.1
COc1ccc2c(c1)sc1nc(C(=O)Nc3ccc(-c4cccnc4)cn3)cn12 [10-methoxy-N-[5-(pyridin-3-yl)pyridin-2-yl]-7-thia-2,5-diazatricyclo[6.4.0.0^2,6]dodeca-1(12),3,5,8,10-pentaene-4-carboxamide]	< 0.1
C=CCOc1ccc2c(c1)sc1nc(C(=O)Nc3ccc(=O)n(C)n3)cn12 [N-(1-methyl-6-oxo-1,6-dihydropyridazin-3-yl)-10-(prop-2-en-1-yloxy)-7-thia-2,5-diazatricyclo[6.4.0.0^2,6]dodeca-1(12),3,5,8,10-pentaene-4-carboxamide]	< 0.1
COc1ccc2c(c1)nc1nc(C(=O)N3Cc4cnn(C)c4C3)ccn12 [5-methoxy-11-{1-methyl-1H,4H,5H,6H-pyrrolo[3,4-c]pyrazole-5-carbonyl}-1,8,10-triazatricyclo[7.4.0.0^2,7]trideca-2(7),3,5,8,10,12-hexaene]	< 0.1
COc1nccc(NC(=O)c2ccn3c(n2)nc2ccccc23)c1C#N [N-(3-cyano-2-methoxypyridin-4-yl)-1,8,10-triazatricyclo[7.4.0.0^2,7]trideca-2(7),3,5,8,10,12-hexaene-11-carboxamide]	< 0.1
Cn1nc(NC(=O)c2ccn3c(n2)nc2ccccc23)ccc1=O [N-(1-methyl-6-oxo-1,6-dihydropyridazin-3-yl)-1,8,10-triazatricyclo[7.4.0.0^2,7]trideca-2(7),3,5,8,10,12-hexaene-11-carboxamide]	< 0.1
CNC(=O)c1ccc(NC(=O)c2ccn3c(n2)nc2ccccc23)cn1 [N-[6-(methylcarbamoyl)pyridin-3-yl]-1,8,10-triazatricyclo[7.4.0.0^2,7]trideca-2(7),3,5,8,10,12-hexaene-11-carboxamide]	< 0.1
COc1ccc2c(c1)sc1nc(C(=O)Nc3ccncc3)cn12 [10-methoxy-N-(pyridin-4-yl)-7-thia-2,5-diazatricyclo[6.4.0.0^2,6]dodeca-1(12),3,5,8,10-pentaene-4-carboxamide]	< 0.1
COc1ccc2c(c1)sc1nc(C(=O)Nc3ccc(=O)[nH]n3)cn12 [10-methoxy-N-(6-oxo-1,6-dihydropyridazin-3-yl)-7-thia-2,5-diazatricyclo[6.4.0.0^2,6]dodeca-1(12),3,5,8,10-pentaene-4-carboxamide]	< 0.1
COc1ccc2c(c1)nc1nc(C(=O)Nc3ccc(=O)n(C)n3)ccn12 [5-methoxy-N-(1-methyl-6-oxo-1,6-dihydropyridazin-3-yl)-1,8,10-triazatricyclo[7.4.0.0^2,7]trideca-2(7),3,5,8,10,12-hexaene-11-carboxamide]	< 0.1
O=C(Nc1ccc(=O)[nH]c1)c1ccn2c(n1)nc1ccccc12 [N-(6-oxo-1,6-dihydropyridin-3-yl)-1,8,10-triazatricyclo[7.4.0.0^2,7]trideca-2(7),3,5,8,10,12-hexaene-11-carboxamide]	< 0.1
COc1ccc2c(c1)sc1nc(C(=O)N(C)c3cccnc3)cn12 [10-methoxy-N-methyl-N-(pyridin-3-yl)-7-thia-2,5-diazatricyclo[6.4.0.0^2,6]dodeca-1(12),3,5,8,10-pentaene-4-carboxamide]	0.1 to 0.5
COc1ccc2c(c1)sc1nc(C(=O)Nc3cncnc3)cn12 [10-methoxy-N-(pyrimidin-5-yl)-7-thia-2,5-diazatricyclo[6.4.0.0^2,6]dodeca-1(12),3,5,8,10-pentaene-4-carboxamide]	< 0.1
COCCNC(=O)c1cn2c(n1)sc1cc(OC)ccc12 [10-methoxy-N-(2-methoxyethyl)-7-thia-2,5-diazatricyclo[6.4.0.0^2,6]dodeca-1(12),3,5,8,10-pentaene-4-carboxamide]	0.1 to 0.5
